± gives the standard deviation of the reports.

Glass transition temperature data for 66 compounds are collected here from the PolyMetriX glass transition set.

Take `*/C(=C(/*)c1ccc([Si](C)(C)C)cc1)c1ccccc1` (repeat unit): the glass transition temperature worked out at 200.00 °C. Next, `*/C(=C/c1cc(OC)c(/C=C(/c2ccc(*)cc2)c2ccc(C(F)(F)F)cc2)cc1OC)c1ccc(C(F)(F)F)cc1` (repeat unit): 208.00 °C; `*/C(=C/c1cc(OC)c(/C=C(/c2ccc(*)cc2)c2ccc(F)cc2)cc1OC)c1ccc(F)cc1` (repeat unit): 193.00 °C.

`*/C(=C/c1cc(OC)c(/C=C(/c2ccc(*)cc2)c2ccc(OC)cc2)cc1OC)c1ccc(OC)cc1` (repeat unit) registered a glass transition temperature of 170.00 °C. Take `*/C(=C/c1cc(OC)c(/C=C(\c2ccc(F)cc2)c2ccc(-c3ccc(*)cc3)cc2)cc1OC)c1ccc(F)cc1` (repeat unit): the glass transition temperature came to 201.00 °C. Next, `*/C(=C/c1cc(OCCCCCCCC)c(/C=C(\c2ccccc2)c2ccc3c(c2)Sc2ccc(*)cc2S3)cc1OCCCCCCCC)c1ccccc1` (repeat unit): 93.00 °C; `*/C(C#N)=C/c1cc(OCCCCCCCCCCCC)c(/C=C(\C#N)c2cc(OCCCCCCCCCCCC)c(*)cc2OC)cc1OC` (repeat unit): 181.00 °C. Consider `*/C=C(\C#N)C(=O)Nc1cc(-c2ccc(O)c(NC(=O)/C(C#N)=C/c3ccc(/C=C/c4ccc(N(c5ccccc5)c5ccc(N(c6ccccc6)c6ccc(/C=C/c7ccc(*)s7)cc6)cc5)cc4)s3)c2)ccc1O` (repeat unit), for which the glass transition temperature was found to be 221.00 °C.

For `*/C=C(\C#N)C(=O)OCCCCCCCCCCOC(=O)/C(C#N)=C/c1ccc2c(c1)c1cc(*)ccc1n2CCCCCCC` (repeat unit), the glass transition temperature was 59.00 °C. Next, `*/C=C(\C#N)C(=O)OCCCCCCOC(=O)/C(C#N)=C/c1ccc2c(c1)c1cc(*)ccc1n2CCCCCCC` (repeat unit): 87.00 °C; `*/C=C(\C#N)C(=O)OCCCCCCOC(=O)/C(C#N)=C/c1ccc2c(c1)c1cc(*)ccc1n2CCCCCCCCCCCCCC` (repeat unit): 53.00 °C; `*/C=C/C(C)C(*)C(=O)OCCCCCCN(C)c1ccc(N(C)C)cc1` (repeat unit): 2.00 °C. The same measure for `*C(*)C(=O)OC` (repeat unit): 85.8 °C. The same measure for `*C(*)F` (repeat unit): 102.00 °C; for `*C(*)O` (repeat unit): 134.00 °C. `*C(F)(F)C(*)(F)c1c(F)c(F)c(F)c(F)c1F` (repeat unit) yielded a glass transition temperature of 194.00 °C. Next, `*C(F)(F)C1(F)C(F)(F)C(*)(F)C1(F)F` (repeat unit): 122.00 °C; `*C(F)C(*)(F)OC(F)(F)F` (repeat unit): -10.00 °C; `*C([2H])([2H])C(*)(C(=O)OC([2H])([2H])C([2H])([2H])[2H])C([2H])([2H])[2H]` (repeat unit): 94.00 °C. `*C([2H])([2H])C(*)(C(=O)OC([2H])([2H])[2H])C([2H])([2H])[2H]` (repeat unit) gave a glass transition temperature of 115.00 °C. The same measure for `*C([2H])([2H])C(*)([2H])Cl` (repeat unit): 85.00 °C; for `*C(c1ccc(N(C)C)cc1)C(*)c1ccc([N+](=O)[O-])cc1` (repeat unit): 139.00 °C; for `*C/C=C/N(/C=C/CC1CC(=O)N(c2ccc(Cc3ccc(N4C(=O)CC(*)C4=O)cc3)cc2)C1=O)c1ccc(/N=N/c2ccc([N+](=O)[O-])cc2)cc1` (repeat unit): 277.00 °C. The compound `*C1=C(c2ccc(-c3ccc4c(c3)C(CCCCCC)(CCCCCC)c3cc(-c5ccc(*)cc5)ccc3-4)cc2)C(=O)N(CCCCCCCC)C1=O` (repeat unit) registered a glass transition temperature of 122.00 °C. Compound `*C1C(*)C2CC1C(C(=O)OCC13CC4CC(CC(C4)C1)C3)C2C(=O)OCC12CC3CC(CC(C3)C1)C2` (repeat unit) yielded a glass transition temperature of 328.00 °C. The same measure for `*C1C(*)C2CC1C(C(=O)OCCC13CC4CC(CC(C4)C1)C3)C2C(=O)OCCC12CC3CC(CC(C3)C1)C2` (repeat unit): 300.00 °C; for `*C1C(*)C2CC1C(C(=O)OCc1ccccc1)C2C(=O)OCc1ccccc1` (repeat unit): 277.00 °C. Next, `*C1C(*)C2CC1C(COCc1ccccc1)C2COCc1ccccc1` (repeat unit): 176.00 °C. The same measure for `*C1C(=O)N(C2CCCCC2)C(=O)C1*` (repeat unit): 232.00 °C; for `*C1C(=O)N(CCCCCCCCOc2ccc(-c3ccc(C#N)cc3)cc2)C(=O)C1*` (repeat unit): 43.00 °C.

`*C1C(=O)N(CCCCCOc2ccc(-c3ccc(C#N)cc3)cc2)C(=O)C1*` (repeat unit): the glass transition temperature turned out to be 75.00 °C. Next, `*C1C(=O)N(c2cc(Br)c(O[Si](C)(C)C)c(Br)c2)C(=O)C1*` (repeat unit): 167.00 °C; `*C1C(=O)N(c2ccc(O[Si](C)(C)C)cc2)C(=O)C1*` (repeat unit): 172.00 °C; `*C1C(=O)N(c2ccccc2C(=O)OC)C(=O)C1*` (repeat unit): 259.00 °C. The same measure for `*C1C(=O)OC(=O)C1C1C2CC(C(=O)OC(C)CC)C(C2)C1*` (repeat unit): 175.00 °C; for `*C1C(=O)OC(=O)C1C1C2CC(COCCC)C(C2)C1*` (repeat unit): 209.00 °C.

In turn, `*C1C2C/C(=C\C)C(C2)C1*` (repeat unit) yielded a glass transition temperature of 61.40 °C. Compound `*C1C2CC(C(=O)OCCc3ccc(N(c4ccccc4)c4cccc(C)c4)cc3)C(C2)C1*` (repeat unit) registered a glass transition temperature of 305.00 °C. In turn, `*C1C2CC(C(=O)OCCc3ccc(N(c4ccccc4)c4cccc5ccccc45)cc3)C(C2)C1*` (repeat unit) showed a glass transition temperature of 333.00 °C. The same measure for `*C1C2CC(C)C(C2)C1*` (repeat unit): 350.00 °C; for `*C1C2CCC(C2)C1*` (repeat unit): 240.00 °C; for `*C1C2CCC(C2)C1S(*)(=O)=O` (repeat unit): 33.00 °C.

As for `*C1C=C(CCCCCC)C(*)S1` (repeat unit), the glass transition temperature was found to be 58.1 °C. Next, `*C1C=CC(*)CC1` (repeat unit): 125.50 °C; `*C1CCC(*)C1` (repeat unit): 65.10 °C.

Regarding `*CC/C=[C](/*)[Sn]([CH2]CCC)([CH2]CCC)[CH2]CCC` (repeat unit), the glass transition temperature is -80.00 °C. Next, `*CCC/C=C(/*)c1ccc(OC)cc1` (repeat unit): 11.00 °C; `*CCCCCCCCCCCCCCCCOC(=O)C/C=C/CC(=O)O*` (repeat unit): -22.00 °C; `*CCCCCCCCCCOc1ccc(/C=C2\CC/C(=C\c3ccc(OCCCCCCCCCCOP(=O)(O*)OC)c(OC)c3)C2=O)cc1OC` (repeat unit): 48.00 °C. As for `*CCCCCCOc1c(OC)cc(/C=C2\CCC/C(=C\c3cc(OC)c(O*)c(OC)c3)C2=O)cc1OC` (repeat unit), the glass transition temperature amounted to 71.00 °C. In turn, `*CCCCCCOc1ccc(/C=C2\CCC/C(=C\c3ccc(O*)c(OC)c3)C2=O)cc1OC` (repeat unit) had a glass transition temperature of 80.00 °C.

Compound `*CCCCOC(=O)/C=C/C(=O)O*` (repeat unit) displayed a glass transition temperature of 93.00 °C. The same measure for `*CCOCCOC(=O)/C=C/C(=O)O*` (repeat unit): -8.20 °C; for `*CCOCCOCCOC(=O)/C=C/C(=O)NCCCCCCNC(=O)/C=C/C(=O)O*` (repeat unit): 65.00 °C.

`*CCOCCOCCOCCOC(=O)/C=C/C(=O)NCCCCCCNC(=O)/C=C/C(=O)O*` (repeat unit): the glass transition temperature worked out at 52.00 °C. Next, `*NNC(=O)/C=C/C(=O)Nc1cccc(/C=C2\CC/C(=C\c3cccc(NC(=O)/C=C/C(*)=O)c3)C2=O)c1` (repeat unit): 104.60 °C; `*Oc1ccc(NC(=O)/C=C/C(=O)NNC(=O)/C=C/C(=O)Nc2ccc(OC(=O)/C=C/C(=O)NNC(=O)/C=C/C(*)=O)cc2)cc1` (repeat unit): 265.00 °C; `*c1ccc(/C=C(\c2ccc(OC)cc2)c2ccc(/C(=C/c3ccc(N(*)c4ccccc4)cc3)c3ccc(OC)cc3)cc2)cc1` (repeat unit): 197.00 °C. The same measure for `*c1ccc(Cc2ccc(N3C(=O)C4CCC(C5CCC6C(=O)N(*)C(=O)C6C5)CC4C3=O)cc2)cc1` (repeat unit): 260.00 °C. The same measure for `*c1ccc(Oc2ccc(-c3ccc(Oc4ccc(N5C(=O)C(c6ccccc6)=C(c6ccc(C7=C(c8ccccc8)C(=O)N(*)C7=O)cc6)C5=O)cc4)cc3)cc2)cc1` (repeat unit): 282.00 °C; for `*c1ccc(Oc2ccc(N3C(=O)C(c4ccccc4)=C(c4ccc(C5=C(c6ccccc6)C(=O)N(*)C5=O)cc4)C3=O)cc2)cc1` (repeat unit): 293.00 °C; for `*c1ccc(Oc2ccc(Oc3ccc(N4C(=O)C5CCC(C6CCC7C(=O)N(*)C(=O)C7C6)CC5C4=O)cc3)cc2)cc1` (repeat unit): 238.00 °C. As to `*c1ccc(Oc2cccc(Oc3ccc(N4C(=O)C5CCC(C6CCC7C(=O)N(*)C(=O)C7C6)CC5C4=O)cc3)c2)cc1` (repeat unit), the glass transition temperature came out at 215.00 °C. Next, `*c1ccc2c(c1)C(=O)N(C1CC(C)(C)CC(C)(CN3C(=O)c4ccc(C(*)(C(F)(F)F)C(F)(F)F)cc4C3=O)C1)C2=O` (repeat unit): 278.00 °C. Next, `*c1ccc2c(c1)C(=O)N(c1cccc(N3C(=O)c4ccc(C(*)(C(F)(F)F)C(F)(F)F)cc4C3=O)c1)C2=O` (repeat unit): 298.00 ± 3.2 °C; `*c1cccc(N2C(=O)C3CCC(C4CCC5C(=O)N(*)C(=O)C5C4)CC3C2=O)c1` (repeat unit): 263.00 °C.
